Experimental data as given in patent publication US20260130395A1, “Water Dispersible Botanical Compositions” (Aquila Black Limited, priority 2021, published 2026).

Test: Stability of cannabinoid compounds and Vitamin E components in Beverage 2 (AB Red) by LCMSMS
Type: physicochemical

CCCCCc1cc(O)c2c(c1)OC1(C)CCC3C1C2C3(C)C (centres unmarked) [CBL, cannabicyclol]
Stability of Plant-Derived Cannabinoid Compounds in AB Red (stored at 8° C., 0 days): 0.510 µg/mL | Stability of Plant-Derived Cannabinoid Compounds in AB Red (stored at 8° C., 1 days): 0.512 µg/mL | Stability of Plant-Derived Cannabinoid Compounds in AB Red (stored at 8° C., 2 days): 0.508 µg/mL | Stability of Plant-Derived Cannabinoid Compounds in AB Red (stored at 8° C., 3 days): 0.499 µg/mL | Stability of Plant-Derived Cannabinoid Compounds in AB Red (stored at 8° C., 5 days): 0.501 µg/mL | Stability of Plant-Derived Cannabinoid Compounds in AB Red (stored at 8° C., 8 days): 0.496 µg/mL | Stability of Plant-Derived Cannabinoid Compounds in AB Red (stored at 8° C., 9 days): 0.496 µg/mL | Stability of Plant-Derived Cannabinoid Compounds in AB Red (stored at 8° C., 10 days): 0.505 µg/mL | Stability of Plant-Derived Cannabinoid Compounds in AB Red (stored at 8° C., 11 days): 0.501 µg/mL | Stability of Plant-Derived Cannabinoid Compounds in AB Red (stored at 8° C., 12 days): 0.499 µg/mL | Stability of Plant-Derived Cannabinoid Compounds in AB Red (stored at 8° C., 15 days): 0.510 µg/mL | Stability of Plant-Derived Cannabinoid Compounds in AB Red (stored at 8° C., 16 days): 0.502 µg/mL | Stability of Plant-Derived Cannabinoid Compounds in AB Red (stored at 8° C., 17 days): 0.514 µg/mL | Stability of Plant-Derived Cannabinoid Compounds in AB Red (stored at 8° C., 18 days): 0.513 µg/mL | Stability of Plant-Derived Cannabinoid Compounds in AB Red (stored at 8° C., 19 days): 0.510 µg/mL | Stability of Plant-Derived Cannabinoid Compounds in AB Red (stored at 8° C., 22 days): 0.495 µg/mL | Stability of Plant-Derived Cannabinoid Compounds in AB Red (stored at 8° C., 23 days): 0.502 µg/mL | Stability of Plant-Derived Cannabinoid Compounds in AB Red (stored at 8° C., 24 days): 0.508 µg/mL | Stability of Plant-Derived Cannabinoid Compounds in AB Red (stored at 8° C., 25 days): 0.510 µg/mL | Stability of Plant-Derived Cannabinoid Compounds in AB Red (stored at 8° C., 26 days): 0.502 µg/mL | Stability of Plant-Derived Cannabinoid Compounds in AB Red (stored at 8° C., 29 days): 0.511 µg/mL | Stability of Plant-Derived Cannabinoid Compounds in AB Red (stored at 8° C., 30 days): 0.511 µg/mL | Stability of Plant-Derived Cannabinoid Compounds in AB Red (stored at 8° C., 60 days): 0.491 µg/mL | Stability of Plant-Derived Cannabinoid Compounds in AB Red (stored at 8° C., 90 days): 0.501 µg/mL | Stability of Plant-Derived Cannabinoid Compounds in AB Red (stored at 8° C., 120 days): 0.488 µg/mL | Stability of Plant-Derived Cannabinoid Compounds in AB Red (stored at 8° C., 150 days): 0.501 µg/mL | Stability of Plant-Derived Cannabinoid Compounds in AB Red (stored at 8° C., 180 days): 0.506 µg/mL | Stability of Plant-Derived Cannabinoid Compounds in AB Red (stored at 8° C., 210 days): 0.490 µg/mL | Stability of Plant-Derived Cannabinoid Compounds in AB Red (stored at 8° C., 240 days): 0.490 µg/mL | Stability of Plant-Derived Cannabinoid Compounds in AB Red (stored at 8° C., 270 days): 0.504 µg/mL | Stability of Plant-Derived Cannabinoid Compounds in AB Red (stored at 8° C., 300 days): 0.489 µg/mL | Stability of Plant-Derived Cannabinoid Compounds in AB Red (stored at 8° C., 330 days): 0.505 µg/mL | Stability of Plant-Derived Cannabinoid Compounds in AB Red (stored at 8° C., 360 days): 0.495 µg/mL | Stability of Plant-Derived Cannabinoid Compounds in AB Red (stored at 8° C., 390 days): 0.491 µg/mL | Stability of Plant-Derived Cannabinoid Compounds in AB Red (stored at 8° C., 420 days): 0.494 µg/mL | Stability of Plant-Derived Cannabinoid Compounds in AB Red (stored at 8° C., 450 days): 0.492 µg/mL | Stability of Plant-Derived Cannabinoid Compounds in AB Red (stored at 8° C., 480 days): 0.487 µg/mL | Stability of Plant-Derived Cannabinoid Compounds in AB Red (stored at 8° C., 510 days): 0.468 µg/mL | Stability of Plant-Derived Cannabinoid Compounds in AB Red (stored at 8° C., 540 days): 0.470 µg/mL | Stability of Plant-Derived Cannabinoid Compounds in AB Red (stored at 8° C., 570 days): 0.469 µg/mL | Stability of Plant-Derived Cannabinoid Compounds in AB Red (stored at 21-25° C., 0 days): 0.51 µg/mL | Stability of Plant-Derived Cannabinoid Compounds in AB Red (stored at 21-25° C., 1 days): 0.50 µg/mL | Stability of Plant-Derived Cannabinoid Compounds in AB Red (stored at 21-25° C., 2 days): 0.50 µg/mL | Stability of Plant-Derived Cannabinoid Compounds in AB Red (stored at 21-25° C., 3 days): 0.50 µg/mL | Stability of Plant-Derived Cannabinoid Compounds in AB Red (stored at 21-25° C., 5 days): 0.51 µg/mL | Stability of Plant-Derived Cannabinoid Compounds in AB Red (stored at 21-25° C., 8 days): 0.50 µg/mL | Stability of Plant-Derived Cannabinoid Compounds in AB Red (stored at 21-25° C., 9 days): 0.51 µg/mL | Stability of Plant-Derived Cannabinoid Compounds in AB Red (stored at 21-25° C., 10 days): 0.50 µg/mL | Stability of Plant-Derived Cannabinoid Compounds in AB Red (stored at 21-25° C., 11 days): 0.50 µg/mL | Stability of Plant-Derived Cannabinoid Compounds in AB Red (stored at 21-25° C., 12 days): 0.50 µg/mL | Stability of Plant-Derived Cannabinoid Compounds in AB Red (stored at 21-25° C., 15 days): 0.50 µg/mL | Stability of Plant-Derived Cannabinoid Compounds in AB Red (stored at 21-25° C., 16 days): 0.51 µg/mL | Stability of Plant-Derived Cannabinoid Compounds in AB Red (stored at 21-25° C., 17 days): 0.51 µg/mL | Stability of Plant-Derived Cannabinoid Compounds in AB Red (stored at 21-25° C., 18 days): 0.50 µg/mL | Stability of Plant-Derived Cannabinoid Compounds in AB Red (stored at 21-25° C., 19 days): 0.49 µg/mL | Stability of Plant-Derived Cannabinoid Compounds in AB Red (stored at 21-25° C., 22 days): 0.49 µg/mL | Stability of Plant-Derived Cannabinoid Compounds in AB Red (stored at 21-25° C., 23 days): 0.51 µg/mL | Stability of Plant-Derived Cannabinoid Compounds in AB Red (stored at 21-25° C., 24 days): 0.50 µg/mL | Stability of Plant-Derived Cannabinoid Compounds in AB Red (stored at 21-25° C., 25 days): 0.51 µg/mL | Stability of Plant-Derived Cannabinoid Compounds in AB Red (stored at 21-25° C., 26 days): 0.51 µg/mL | Stability of Plant-Derived Cannabinoid Compounds in AB Red (stored at 21-25° C., 29 days): 0.49 µg/mL | Stability of Plant-Derived Cannabinoid Compounds in AB Red (stored at 21-25° C., 30 days): 0.51 µg/mL | Stability of Plant-Derived Cannabinoid Compounds in AB Red (stored at 21-25° C., 60 days): 0.50 µg/mL | Stability of Plant-Derived Cannabinoid Compounds in AB Red (stored at 21-25° C., 90 days): 0.49 µg/mL | Stability of Plant-Derived Cannabinoid Compounds in AB Red (stored at 21-25° C., 120 days): 0.50 µg/mL | Stability of Plant-Derived Cannabinoid Compounds in AB Red (stored at 21-25° C., 150 days): 0.49 µg/mL | Stability of Plant-Derived Cannabinoid Compounds in AB Red (stored at 21-25° C., 180 days): 0.50 µg/mL | Stability of Plant-Derived Cannabinoid Compounds in AB Red (stored at 21-25° C., 210 days): 0.49 µg/mL | Stability of Plant-Derived Cannabinoid Compounds in AB Red (stored at 21-25° C., 240 days): 0.49 µg/mL | Stability of Plant-Derived Cannabinoid Compounds in AB Red (stored at 21-25° C., 270 days): 0.49 µg/mL | Stability of Plant-Derived Cannabinoid Compounds in AB Red (stored at 21-25° C., 300 days): 0.50 µg/mL | Stability of Plant-Derived Cannabinoid Compounds in AB Red (stored at 21-25° C., 330 days): 0.50 µg/mL | Stability of Plant-Derived Cannabinoid Compounds in AB Red (stored at 21-25° C., 360 days): 0.49 µg/mL | Stability of Plant-Derived Cannabinoid Compounds in AB Red (stored at 21-25° C., 390 days): 0.49 µg/mL | Stability of Plant-Derived Cannabinoid Compounds in AB Red (stored at 21-25° C., 420 days): 0.48 µg/mL | Stability of Plant-Derived Cannabinoid Compounds in AB Red (stored at 21-25° C., 450 days): 0.49 µg/mL | Stability of Plant-Derived Cannabinoid Compounds in AB Red (stored at 21-25° C., 480 days): 0.48 µg/mL | Stability of Plant-Derived Cannabinoid Compounds in AB Red (stored at 21-25° C., 510 days): 0.47 µg/mL | Stability of Plant-Derived Cannabinoid Compounds in AB Red (stored at 21-25° C., 540 days): 0.47 µg/mL | Stability of Plant-Derived Cannabinoid Compounds in AB Red (stored at 21-25° C., 570 days): 0.47 µg/mL
